Assay results as given in patent publication US9073941B2, “Compounds and methods for treating tuberculosis infection” (Academia Sinica, priority 2010, dated 2015).
Converted amounts (≈) assume the structure as drawn. Read-outs that look alike come from different tables or passages of the source.

Columns and labels:
[1] = molecular target: Mtb PDH (Lpd+DlaT+AceE) (Mycobacterium tuberculosis (strain ATCC 25618 / H37Rv), UniProt P9WHH9); assay: PDH Inhibition Activity; format: biochemical
[2] = molecular target: lipoamide dehydrogenase (Lpd) (Mycobacterium tuberculosis (strain ATCC 25618 / H37Rv), UniProt P9WHH9); assay: Lipoamide Dehydrogenase (Lpd) Inhibition Assay; format: biochemical
[3] = system: Mycobacterium tuberculosis strains H37Rv; assay: In Vitro Antitubercular H37Rv MIC Assay (resazurin); format: cell-based; settings: 168 h
[4] = concentration required for 50% inhibition of PDH activity, fluorescence ex 360 nm / em 460 nm, read-out: PDH IC50
[5] = concentration required for 50% inhibition of LPD activity, DTNB detection, OD405 nm
[6] = growth of Mycobacterium tuberculosis H37Rv, 7H9 medium, 7 days, tested 8-0.25 μg/mL
[7] = Mycobacterium tuberculosis, H37RV

| Structure (SMILES) | IC50 [1, 4] | IC50 [2, 5] | also measured |
| --- | --- | --- | --- |
| CCn1nc(-c2ccc(OC)cc2)nc2c(=O)n(C)c(=O)nc1-2 [Compound 607] | < 0.04 µM | 0.06 ± 0.01 µM | MIC [3, 6]: 8 mg/L (≈ 25.5 µM) |
| Nc1c(O)ccc2nsnc12 [Compound 203] | 3.67 µM |  | MIC [3, 6]: > 8 mg/L |
| Nc1ccc2c(c1)C(=O)C(=O)c1ccccc1-2 [Compound 902] | 0.788 µM | 0.67 ± 0.07 µM | MIC [3, 6]: > 8 mg/L |
| CCCCn1c(NC(=O)c2ccc(Br)o2)c(C#N)c2nc3ccccc3nc21 [Compound 1001] | 0.954 µM | 1.08 ± 0.24 µM | MIC [3, 6]: > 8 mg/L |
| CCCCCn1c(NC(=O)c2ccc(Br)o2)c(C#N)c2nc3ccccc3nc21 [Compound 1007] |  |  | IC50 [1]: > 5 µM; IC50 [2]: 1.36 ± 0.16 µM |
| Cn1nc(-c2ccc(F)cc2)nc2c(=O)n(C)c(=O)nc1-2 [Compound 616] |  |  | IC50 [1]: < 0.04 µM; IC50 [2]: < 0.04 µM |
| COc1ccc(-c2nc3c(=O)n(C)c(=O)nc-3n(C)n2)cc1 [Compound 605] | < 0.04 µM | 0.07 ± 0.01 µM | MIC [3, 6]: 8 mg/L (≈ 26.7 µM) |
| CCC(C)n1c(NC(=O)c2ccccc2)c(C#N)c2nc3ccccc3nc21 (stereo not shown) [Compound 1004] | > 5 µM | 0.87 ± 0.1 µM |  |
| CCCCn1c(NS(=O)(=O)c2ccc(C)cc2)c(C#N)c2nc3ccccc3nc21 [Compound 1005] | > 5 µM | 0.9 ± 0.13 µM |  |
| c1ccc2c(c1)ccn1c3ccccc3cc21 [Compound 401] | 0.14 µM |  | MIC [3, 6]: > 8 mg/L |
| CCCc1nc2c(=O)n(C)c(=O)nc-2n(C)n1 [Compound 617] | < 0.04 µM | < 0.04 µM |  |
| CCn1nc(-c2ccccc2C)nc2c(=O)n(C)c(=O)nc1-2 [Compound 613] | < 0.04 µM | < 0.04 µM |  |
| CCn1nc(-c2ccc([N+](=O)[O-])cc2)nc2c(=O)n(C)c(=O)nc1-2 [Compound 620] | < 0.04 µM | < 0.04 µM |  |
| CCC(C)n1c(NC(=O)c2ccc(Br)o2)c(C#N)c2nc3ccccc3nc21 (stereo not shown) [Compound 1009] | > 5 µM | 1.65 ± 0.23 µM |  |
| O=C1C(=O)c2cc([N+](=O)[O-])ccc2-c2ccccc21 [Compound 904] | 0.691 µM | 0.64 ± 0.05 µM | MIC [3, 6]: > 8 mg/L |
| Cn1c(N)c(C(=O)NCc2ccccc2)c2nc3ccccc3nc21 [Compound 1013] | > 5 µM | > 4 µM |  |
| COc1ccc(-c2nc3c(=O)n(C)c(=O)nc-3n(C)n2)cc1OC [Compound 606] | 1.44 µM | 0.96 ± 0.07 µM | MIC [3, 6]: > 8 mg/L |
| CN1N=C(c2ccccc2)Nc2c1nc(O)n(C)c2=O [Compound 701] | < 0.04 µM |  | MIC [3, 7]: > 8 mg/L |
| CCCCn1c(NC(=O)c2cccs2)c(C#N)c2nc3ccccc3nc21 [Compound 1006] | > 5 µM | 0.86 ± 0.16 µM |  |
| Cn1nc(-c2ccccc2)nc2c(=O)n(C)c(=O)nc1-2 [Compound 601] | < 0.04 µM | < 0.04 µM | MIC [3, 7]: > 8 mg/L |
| CCn1nc(-c2cccs2)nc2c(=O)n(C)c(=O)nc1-2 [Compound 610] | < 0.04 µM | < 0.04 µM | MIC [3, 7]: > 8 mg/L |
| Cc1ccc(-c2nc3c(=O)n(C)c(=O)nc-3n(C)n2)cc1 [Compound 618] |  |  | IC50 [1]: < 0.04 µM; IC50 [2]: < 0.04 µM |
| CC1(C)C(=O)N=C2c3ccccc3C(=O)C(=O)C21 (stereo not shown) [Compound 903] | 1.17 µM | 0.86 ± 0.08 µM | MIC [3, 6]: > 8 mg/L |

| Structure (SMILES) | IC50 [1, 4] | IC50 [2, 5] | also measured |
| --- | --- | --- | --- |
| CCn1nc(-c2cccnc2)nc2c(=O)n(C)c(=O)nc1-2 [Compound 608] |  |  | IC50 [1]: < 0.04 µM; IC50 [2]: 0.19 ± 0.03 µM; MIC [3, 7]: > 8 mg/L |
| COc1ccc(NC(=O)CN(C)S(=O)(=O)c2cc(Br)cnc2N)cc1 [Compound 500] |  |  | MIC [3, 6]: > 8 mg/L |
| CCOC(=O)c1c(NS(=O)(=O)c2ccccc2)n(CCCOC)c2nc3ccccc3nc12 [Compound 1011] | > 5 µM | 1.31 ± 0.16 µM |  |
| COc1ccc(CCI)cc1 [Compound 303] | < 0.04 µM |  | MIC [3, 6]: 2 mg/L (≈ 7.63 µM) |
| CC(=O)C(C(C)=O)C1=CC(=O)C(=O)c2ccccc21 [Compound 906] | > 5 µM | 2.15 ± 0.43 µM |  |
| CCn1nc(/C=C/c2ccccc2)nc2c(=O)n(C)c(=O)nc1-2 [Compound 609] | < 0.04 µM | < 0.04 µM | MIC [3, 7]: > 8 mg/L |
| CCn1nc(-c2ccccc2)nc2c(=O)n(C)c(=O)nc1-2 [Compound 602] |  |  | IC50 [1]: < 0.04 µM; IC50 [2]: 0.23 ± 0.02 µM; MIC [3, 7]: > 8 mg/L |
| Nc1c(Br)cc(Br)c2nsnc12 [Compound 202] | 1.69 µM |  |  |
| CCOc1ccccc1/C=C1\Cc2ccccc2C1=O [Compound 102] | 1.13 µM |  | MIC [3, 6]: > 8 mg/L |
| COCCCn1c(N)c(C(=O)NCCC(C)C)c2nc3ccccc3nc21 [Compound 1012] | > 5 µM | > 4 µM |  |
| O=C(OC[C@H]1O[C@H](OC(=O)c2cc(O)c(O)c(OC(=O)c3cc(O)c(O)c(O)c3)c2)[C@H](OC(=O)c2cc(O)c(O)c(OC(=O)c3cc(O)c(O)c(O)c3)c2)[C@@H](OC(=O)c2cc(O)c(O)c(OC(=O)c3cc(O)c(O)c(O)c3)c2)[C@@H]1OC(=O)c1cc(O)c(O)c(OC(=O)c2cc(O)c(O)c(O)c2)c1)c1cc(O)c(O)c(OC(=O)c2cc(O)c(O)c(O)c2)c1 [Compound 302] | 0.45 µM |  | MIC [3, 6]: > 8 mg/L |
| Cc1ccc(CNC(=O)C2CCN(S(=O)(=O)c3cn(C(C)C)cn3)CC2)cc1 [Compound 501] | 3.13 µM | 3.05 ± 1.05 µM | MIC [3, 6]: > 8 mg/L |
| Cn1nc(-c2ccc(Cl)c(Cl)c2)nc2c(=O)n(C)c(=O)nc1-2 [Compound 604] |  |  | IC50 [1]: < 0.04 µM; IC50 [2]: 0.14 ± 0.01 µM; MIC [3, 6]: > 8 mg/L |
| C=CCOCc1ccccc1 [Compound 301] | 0.76 µM |  | MIC [3, 6]: 8 mg/L (≈ 54 µM) |
| CCCCn1c(NC(=O)c2ccccc2)c(C#N)c2nc3ccccc3nc21 [Compound 1003] | > 5 µM | 0.52 ± 0.07 µM |  |
| O=C1C(=O)c2nn(-c3ccccc3)nc2-c2ccccc21 [Compound 905] |  |  | IC50 [1]: < 0.04 µM; IC50 [2]: < 0.04 µM; MIC [3, 6]: 8 mg/L (≈ 29.1 µM) |
| CCn1nc(-c2ccc(C(=O)OC)cc2)nc2c(=O)n(C)c(=O)nc1-2 [Compound 621] | < 0.04 µM | < 0.04 µM |  |
| CCOC(=O)/C=C\CBr [(XVI)] | 1.65 µM | 2.92 ± 0.88 µM | MIC [3, 6]: ≤ 0.25 mg/L |
| Cc1nc2c(=O)n(C)c(=O)nc-2n(C)n1 [Compound 611] | < 0.04 µM | 0.08 ± 0.01 µM | MIC [3, 7]: 4 mg/L (≈ 19.3 µM) |
| CCc1ccc(NC(=O)C2CCN(S(=O)(=O)c3cn(CC)cn3)CC2)cc1 [Compound 539] |  |  | IC50 [2]: 4.3 ± 1.66 µM |
| CCN(C(=O)C1CCCO1)c1nc2c(s1)CCc1c-2cnn1C (stereo not shown) [Compound 1108] |  | 3.76 ± 0.19 µM |  |
| COc1ccc(CNC(=O)C2CCN(S(=O)(=O)c3cn(C(C)C)cn3)CC2)cc1 [Compound 558] |  | 3.33 ± 0.8 µM |  |
| Cn1nc(-c2ccc([N+](=O)[O-])cc2)nc2c(=O)n(C)c(=O)nc1-2 [Compound 614] | < 0.04 µM | < 0.04 µM |  |

| Structure (SMILES) | IC50 [1, 4] | IC50 [2, 5] | also measured |
| --- | --- | --- | --- |
| COCCn1c(NC(=O)c2cccc([N+](=O)[O-])c2)c(C#N)c2nc3ccccc3nc21 [Compound 1008] | > 5 µM | 1.05 ± 0.14 µM |  |
| Cn1nc(-c2ccc(C(F)(F)F)cc2)nc2c(=O)n(C)c(=O)nc1-2 [Compound 619] | < 0.04 µM | < 0.04 µM |  |
| Cc1ccc(NC(=O)C2CCN(S(=O)(=O)c3cn(C(C)C)cn3)CC2)cc1C [Compound 510] |  | 2.45 ± 0.21 µM |  |
| COC1CCCC(C(=O)N(CC2CCCO2)c2nc3c(s2)CCc2c-3cnn2C)C1 (stereo not shown) [Compound 1107] |  | 3.22 ± 0.5 µM |  |
| COc1ccc(NC(=O)C2CCN(S(=O)(=O)c3cn(C(C)C)cn3)CC2)cc1Cl [Compound 534] |  | 1.69 ± 0.38 µM |  |
| CC(C)n1cnc(S(=O)(=O)N2CCC(C(=O)Nc3ccc4c(c3)OCO4)CC2)c1 [Compound 530] |  |  | IC50 [2]: 2.07 ± 0.71 µM |
| CCn1cnc(S(=O)(=O)N2CCC(C(=O)Nc3cccc(-c4ccno4)c3)CC2)c1 [Compound 553] |  | 2.68 ± 0.99 µM |  |
| N#Cc1c(NC(=O)c2ccc(Cl)c([N+](=O)[O-])c2)n(Cc2ccccc2)c2nc3ccccc3nc12 [Compound 1010] |  |  | IC50 [1]: > 5 µM; IC50 [2]: > 4 µM |
| CC(C)n1cnc(S(=O)(=O)N2CCC(C(=O)Nc3cccc(-c4ccno4)c3)CC2)c1 [Compound 535] |  | 2.12 ± 0.21 µM |  |
| O=C1c2ccccc2-c2nc3nonc3nc21 [Compound 103] | < 0.04 µM |  | MIC [3, 6]: ≤ 0.25 mg/L |
| CC(C)n1cnc(S(=O)(=O)N2CCC(C(=O)Nc3ccccc3)CC2)c1 [Compound 507] |  | 2.77 ± 0.69 µM |  |
| Cc1cccc(NC(=O)C2CCN(S(=O)(=O)c3cn(C(C)C)cn3)CC2)c1 [Compound 508] |  | 2.61 ± 0.82 µM |  |
| COc1ccc(NC(=O)C2CCN(S(=O)(=O)c3cn(C(C)C)cn3)CC2)c(OC)c1 [Compound 537] |  | 3.4 ± 1.6 µM |  |
| Cc1ccc(NC(=O)C2CCN(S(=O)(=O)c3cn(C(C)C)cn3)CC2)cc1F [Compound 532] |  |  | IC50 [2]: 2.85 ± 0.51 µM |
| CC(C)n1cnc(S(=O)(=O)N2CCC(C(=O)Nc3ccc(Br)cc3F)CC2)c1 [Compound 538] |  | 2.54 ± 0.57 µM |  |
| COCCN(C(=O)c1nsc(Cl)c1Cl)c1nc2c(s1)CCc1c-2cnn1C [Compound 1104] |  | 2.24 ± 0.26 µM |  |
| CCc1ccc2nc(O)c(CNc3ccc(N(C)C)cc3)cc2c1 [Compound 806] |  | 4.73 ± 0.91 µM |  |
| COc1cccc(NC(=O)C2CCN(S(=O)(=O)c3cn(C(C)C)cn3)CC2)c1 [Compound 516] |  | 2.46 ± 0.76 µM |  |
| CCn1nc(-c2ccccc2Cl)nc2c(=O)n(C)c(=O)nc1-2 [Compound 615] | < 0.04 µM | < 0.04 µM |  |
| O=C1c2ccccc2C(O)(O)[C@@]1(O)[C@]1(O)C(=O)c2ccccc2C1(O)O [Compound 101] | 1.93 µM |  | MIC [3, 7]: > 8 mg/L |
| CC(C)n1cnc(S(=O)(=O)N2CCC(C(=O)Nc3ccc4c(c3)OCCO4)CC2)c1 [Compound 523] |  | 1.6 ± 0.48 µM |  |
| COc1ccc(NC(=O)C2CCN(S(=O)(=O)c3cn(C(C)C)cn3)CC2)cc1OC [Compound 528] |  | 1.83 ± 0.14 µM |  |
| CCOc1ccc2nc(NC(=O)C3CCN(S(=O)(=O)c4cn(C(C)C)cn4)CC3)sc2c1 [Compound 550] |  | 2.13 ± 0.24 µM |  |
